Measured values published in patent US20250262139A1, “POLYPEPTIDES AND METHODS FOR IMPROVING SKIN CONDITIONS” (INTERK PEPTIDE THERAPEUTICS LIMITED, priority 2020, published 2025).
Where no end group is shown, it is not given here.

Key:
Aquaporin 3 = Aquaporin 3 expression in keratinocytes exposed to HEV (blue) light; type: cell-based, human; details: NHEK exposed to HEV (blue) light; for increase in number of Aquaporin 3 positive cells: 470 nm, 3 days
Procedure: The ability of the polypeptide RSKAKNPLYRRRRRRRRR, to reverse HEV light (‘blue light”) induced damage to human keratinocytes was examined. In brief, Human Epidermal Keratinocytes (NHEK) which are representative of the epidermis were exposed to HEV light in the presence of the polypeptide RSKAKNPLYRRRRRRRRR, or untreated in the presence of the polypeptide RSKAKNPLYRRRRRRRRR.
The expression of Aquaporin 3 in cells (e.g. aquaporin 3 positive cells_was measured. Aquaporin 3 is found in the basolateral cell membrane and provides a pathway for water to exit cells. It is expressed in various tissues including the skin.
The experiment was carried out in quintuplicate in the following conditions (n=5): • Untreated NHEK • NHEK+IK14800 2,5 μM • NHEK+IK14800 5 μM • NHEK+IK14800 10 μM • NHEK+Blue light • NHEK+Blue light+IK14800 2.5 μM • NHEK+Blue light+IK14800 5 μM • NHEK+Blue light+IK14800 10 μM
Chronic blue light irradiation: one exposure per day for 3 days (220 joules—wavelength 470 nm). 4 days of treatment with the peptide (24 h before exposure to blue light and during the 3 days. The peptide was resuspended in milliQ water then diluted in the cell culture medium.
After treatment, the cells were washed and fixed with Formalin.
Finally, the nuclei were labelled with DAPI. The labelled proteins were observed and quantified by automated fluorescence microscopy Cellinsight CX7 High-Content Screening Platform (Thermofischer Data analysis
A statistical analysis was performed using Mann-Whitney by Prism software. The significance is correlated with the p-value: ns=no significant, […], **p-value<0.01, ***p-value<0.001.).

Skh: hr1 hairless mice = assay: 8-OHdG (8oxodG) immunohistochemistry in UV-irradiated mouse skin; type: in vivo; details: topical immediately after 3 MED UVR; IK34720 20, 100 or 200 μg, Calcitriol 11.4 pmol/cm2; biopsy 3 h post-UVR; vs vehicle
Procedure: 8-hydroxy-2′-deoxyguanosine or 8-oxo-7,8-dihydro-2′-deoxyguanosine (8-OHdG/8-oxodG) is one of the predominant forms of free radical-induced in oxidative lesions with the concentrations of 8-OHdG within a cell being a measurement of oxidative stress. The role of the polypeptide IK34720 (SEQ ID NO: 3) in UV-induced oxidative stress was assessed using the following protocol.
Female Skh: hr1 hairless mice were exposed to solar simulated UV-irradiation (UVR) by exposure to one fluorescent UVB tube (Philips TL40W 12R/S, Eindhoven, The Netherlands) in combination with 6 UVA tubes (Hitachi 40W F40T 10/BL, Tokyo, Japan). The UVA and UVB irradiation was filtered through a 0.125 mm cellulose acetate sheet (Grafix Plastics, Cleveland, OH) as previously described (Dixon K M et al., Biochem Mol Biol, 2007, 103 (3-5): 451-6). […]
Biopsies were taken from UV-irradiated dorsal skin 3 h post-UVR and fixed in Histochoice fixative (Amresco, Solon OH) for 6 h. […] Sections were subjected to routine hematoxylin and eosin staining for visualization of sunburn cells at 40× magnification, and the number of sunburn cells per linear millimetre of skin section recorded.
Levels of 8-oxo-2′-deoxyguanosine (8oxodG) indicative of oxidative stress were detected by immunohistochemistry and image analysis (Dixon K M et al., Cancer Prev Res 2011, 4 (9): 1485-94) as set out below. […]

[1] = test system: ICR mice, punch skin wound; assay: murine wound model, wound closure; type: in vivo; details: topical 10 μg per mouse daily for 10 consecutive days; Day 5 to Day 11; vs negative control (PBS)
From the text: FIGS. 1 and 2 illustrate the effect of polypeptides IK34720 (SEQ ID NO: 3—RSKAKNPLYRRRRRRRRR) (FIG. 1) and the dextro-reverso sequence IK236770 (SEQ ID NO: 4—rrrrrrrrrylpnkaksr) (FIG. 2), on wound healing over 10 days in a murine wound model in accordance with the following protocol.
Three groups of 8 male ICR mice with a mean weight of 22 g (+2 g) were used in the present study. The animals were housed in individual cages during the study. Under isoflurane gas anaesthesia, the shoulder and back region of each animal was shaved and a sharp punch (ID 12 mm) was used to induce a wound by removing the skin, including panniculus carnosus and adherent tissues on Day 1.
Following induction of the wound the polypeptides IK34720 and IK236770 were topically administered to the site of the wound at a dosage of 10 μg per animal. […] An additional group which comprised the administration of Phosphate buffered Saline (PBS) at pH 7.4 was used as a negative control.
The wound healing was analysed on Days 5, 7, 9 and 11 by tracing the periphery of the wound onto clear plastic sheets with the wound area calculated by an Image analyzer ProPlus (Media Cybernetics, Version 4.5.0.29. The percentage closure of the wound (%) was calculated. Percentage closure of the wound was determined on 5, 7, 9 and 11. ANOVA and Dunnett's test were applied to test significant significance between the treated groups (peptide and positive control groups) and the negative control group at each time point of measurement. Differences were considered statistically significant at P<0.05, and are indicated by *.

human skin explants = assay: sunburn (apoptotic) cells in UV-irradiated human skin explants; type: cell-based
Procedure: Skin explants were cultured irradiated and treated as described above for CPD, and subsequent to treatment were stained and quantified as described for Example 6.

RSKAKNPLYRRRRRRRRR (not fully specified (some residues)) [IK34720]
increase in number of Aquaporin 3 positive cells (Aquaporin 3; 5 μM): +20%
increase in number of Aquaporin 3 positive cells (Aquaporin 3; 10 μM): +27%
basal expression of Aquaporin 3 (Aquaporin 3; 2.5, 5, 10 μM): restores the basal expression of Aquaporin 3 in a dose dependent manner
8-OHdG formation in the skin (Skh: hr1 hairless mice): inhibits 8-OHdG formation
wound closure percentage [1]: statistically significant increase
number of apoptotic cells (human skin explants; 50 μM and 250 μM, 3 hrs and 24 hrs post UV-irradiation): reduces the number of apoptotic cells
number of apoptotic cells (human skin explants; 80 μM, 400 μM and 800 μM, following UV-irradiation, data not shown): statistically significantly reduces the number of apoptotic cells
number of apoptotic cells (human skin explants; 500 μM, 3 hrs and 24 hrs post UV-irradiation): statistically significantly reduces the number of apoptotic cells
